Tests used:
HCT-116 cells [1] = test: Test for inhibiting sphere-forming ability of cancer cells (in the presence of BSA); format: cell-based; details: HCT-116 spheres, non-adherent, 5% BSA, 4 days, CellTiter-Glo, read-out: IC50 (Sphere IC50 value; concentration for 50% inhibition of cell proliferation)
Protocol: HCT-116 cells were available from the American Type Culture Collection (ATCC). HCT-116 cells were cultured at 37° C. and 5% CO2 using the McCoy's 5a medium containing 10% fetal bovine serum (FBS) and 1% penicillin/streptomycin. HCT-116 cells were seeded in a 384 Well Black Clear Bottom Ultra-Low Attachment Microplate (Corning Cat. No. 3827) in an amount of 350-800 cells/well using the DMEM/F12 medium containing 2% B27 supplement (GIBCO), 20 ng/mL epidermal growth factor (EGF) (peprotech), 10 ng/mL basic fibroblast growth factor (bFGF) (peprotech), 5 μg/mL insulin (Sigma), 5% bovine serum albumin (BSA), and 1% penicillin/streptomycin. The test compounds were added into each well to adjust the final concentration of DMSO to 0.1%, and the cells were cultured for 4 days. The number of viable cells in each well was then measured with CellTiter-Glo® Luminescent Cell Viability Assay (Promega) to calculate the concentration of each test compound for 50% inhibition of cell proliferation (Sphere IC50 value; μmol/L).
The experiment of Test Example 2 was performed for the compounds of each Example. The concentrations of each test compound for 50% inhibition of cell profeliration (Sphere IC50 value; μmol/L) are shown in the following Table.

HCT-116 cells [2] = test: Anti-tumor effect to HCT-116 tumor-bearing mouse; format: in vivo; details: oral, administration period 17 days, nude mouse
Excerpt: The present compound can be used to evaluate the anti-tumor effect thereof. A 4 to 7-week-old nude mouse (BALB/cAnNCrj-nu/nu, female, CHARLES RIVER LABORATORIES JAPAN, INC.) received intradermal transplantation of HCT-116 cells (ATCC) in an amount of 3×10^6 cells/mouse around the ventral portion. The engraftment of HCT-116 cells was observed 5 to 14 days after the transplantation, and then each compound suspended in a solvent such as 0.5% methylcellulose solution was orally administrated to the mouse in a dose of 1 to 100 mg/kg one to twice daily. The tumor volume was measured over time after the administration to evaluate the effect for reducing the tumor volume by the administration of each compound. The tumor volume can be calculated from the minor axis and the major axis of the tumor measured with a digital caliper (Mitutoyo) according to the following formula: Tumor volume [mm^3]=0.5×minor axis [mm]×(major axis [mm])^2
The tumor volume in control administration group treated with only a solvent such as 0.5% methylcellulose solution was compared with that of the present compound administration group, and T/C value was calculated according the following formula to evaluate the anti-tumor effect of the present compound. T/C(%)=(the tumor volume at the end of administration in the present compound administration group−the tumor volume at the start of administration in the present compound administration group)/(the tumor volume at the end of administration in the control administration group−the tumor volume at the start of administration in the control administration group)×100
The T/C values (%) of the present compound on each dosage and administration period in the HCT-116 tumor-bearing mouse are shown below.

HCT-116 cells [3] = test: Test for inhibiting sphere-forming ability of cancer cells; format: cell-based; details: HCT-116 spheres, non-adherent, serum-free, 4 days, CellTiter-Glo, read-out: IC50 (Sphere IC50 value; concentration for 50% inhibition of cell proliferation)
Protocol: The reliable methods established for measuring the self-renewal ability of cells which is one of the CSC's properties include a method for measuring the sphere-forming ability of cancer cells in non-adherent condition in the absence of serum (Cancer Res 65, 5506-5511 (2005)). HCT-116 cells were available from the American Type Culture Collection (ATCC). HCT-116 cells were cultured at 37° C. and 5% CO2 using the McCoy's 5a medium containing 10% fetal bovine serum (FBS) and 1% penicillin/streptomycin. HCT-116 cells were seeded in a 384 Well Black Clear Bottom Ultra-Low Attachment Microplate (Corning Cat. No. 3827) in an amount of 350-800 cells/well using the DMEM/F12 medium containing 2% B27 supplement (GIBCO), 20 ng/mL epidermal growth factor (EGF) (peprotech), 10 ng/mL basic fibroblast growth factor (bFGF) (peprotech), 5 μg/mL insulin (Sigma), and 1% penicillin/streptomycin. The test compounds were added into each well to adjust the final concentration of DMSO to 0.1%, and the cells were cultured for 4 days. The number of viable cells in each well was then measured with CellTiter-Glo® Luminescent Cell Viability Assay (Promega) to calculate the concentration of each test compound for 50% inhibition of cell proliferation (Sphere IC50 value; μmol/L).
The experiment of Test Example 1 was performed for the compounds of each Example. The concentrations of each test compound for 50% inhibition of cell profeliration (Sphere IC50 value; μmol/L) are shown in the following Table.

Row | SMILES | IC50 (HCT-116 cells [1]; Homo sapiens, HCT-116, 96 h) [nM] | IC50 (HCT-116 cells [3]; Homo sapiens, 96 h) [nM] | IC50 (HCT-116 cells [1]) [nM] | IC50 (HCT-116 cells [3]) [nM] | T/C (HCT-116 cells [2]; dosage 10 mg/kg) [%] | T/C (HCT-116 cells [2]; dosage 30 mg/kg) [%] | T/C (HCT-116 cells [2]; dosage 100 mg/kg) [%]
1 | O=C(Nc1cc2c(cn1)CNCC2)c1cn(Cc2cc(F)c(F)c(F)c2)cn1 [Example 3, N-(5,6,7,8-tetrahydro-2,7-naphthyridin-3-yl)-1-(3,4,5-trifluorobenzyl)-1H-imidazole-4-carboxamide] | 30 | 60 |  |  | 90 | 79 | 
2 | O=C(Nc1cn(Cc2cc(F)c(F)c(F)c2)cn1)c1cc(F)c2c(c1)CCNC2 [Example 5, 8-fluoro-N-[1-(3,4,5-trifluorobenzyl)-1H-imidazol-4-yl]-1,2,3,4-tetrahydroisoquinoline-6-carboxamide] | 60 | 70 |  |  |  | 71 | 42
3 | O=C(Nc1cn(Cc2cc(F)c(F)c(F)c2)cn1)c1ccc2c(c1)CCNC2 [Example 6, N-[1-(3,4,5-trifluorobenzyl)-1H-imidazol-4-yl]-1,2,3,4-tetrahydroisoquinoline-6-carboxamide] |  |  | 50 | 60 |  | 73 | 
4 | O=C(Nc1cn(Cc2cc(F)c(F)c(F)c2)cn1)c1ccc2c(n1)CCNC2 [Example 11, N-[1-(3,4,5-trifluorobenzyl)-1H-imidazol-4-yl]-5,6,7,8-tetrahydro-1,6-naphthyridine-2-carboxamide] | 50 | 50 |  |  |  | 62 | 46
5 | O=C(Nc1cn(Cc2cc(F)c(F)c(F)c2)cn1)c1cnc2c(c1)CCNC2 [Example 12, N-[1-(3,4,5-trifluorobenzyl)-1H-imidazol-4-yl]-5,6,7,8-tetrahydro-1,7-naphthyridine-3-carboxamide] | 60 | 70 |  |  |  | 79 | 73
6 | O=C(Nc1cn(Cc2cc(Br)cc(Br)c2)cn1)c1ccc2c(c1)CCNC2 [Example 96] | 200 | 60 |  |  |  |  | 
7 | O=C(Nc1cn(Cc2cc(Cl)cc(OC(F)(F)F)c2)cn1)c1ccc2c(c1)CCNC2 [Example 100, N-{1-[3-chloro-5-(trifluoromethoxy)benzyl]-1H-imidazol-4-yl}-1,2,3,4-tetrahydroisoquinoline-6-carboxamide] | 70 | 60 |  |  |  |  | 
8 | O=C(Nc1cn(Cc2cc(Cl)cc(Cl)c2)cn1)c1ccc2c(c1)CCNC2 [Example 101, N-[1-(3,5-dichlorobenzyl)-1H-imidazol-4-yl]-1,2,3,4-tetrahydroisoquinoline-6-carboxamide] | 60 | 70 |  |  |  |  | 
9 | O=C(Nc1cn(Cc2ccc(Cl)c(Cl)c2)cn1)c1ccc2c(c1)CCNC2 [Example 102, N-[1-(3,4-dichlorobenzyl)-1H-imidazol-4-yl]-1,2,3,4-tetrahydroisoquinoline-6-carboxamide] | 60 | 60 |  |  |  |  | 
10 | O=C(Nc1cn(Cc2ccc3ccccc3c2)cn1)c1ccc2c(c1)CCNC2 [Example 103] | 6100 | 4180 |  |  |  |  | 
11 | CN(C)c1cccc(Cn2cnc(NC(=O)c3ccc4c(c3)CCNC4)c2)c1 [Example 105] | 5120 | 5900 |  |  |  |  | 
12 | O=C(/C=C/c1ccc2c(c1)CCNC2)Nc1cn(Cc2cc(F)c(F)c(F)c2)cn1 [Example 112] | 6340 | 710 |  |  |  |  | 
13 | O=C(Nc1cn(CCOc2ccccc2)cn1)c1cnc2c(c1)CCNC2 [Example 116] |  |  | 1970 | 5990 |  |  | 
14 | O=C(Nc1cn(CCCOc2ccccc2)cn1)c1cnc2c(c1)CCNC2 [Example 117] |  |  | 5680 | 6810 |  |  | 
15 | O=C(Nc1cn(Cc2ccc3c(c2)OCO3)cn1)c1cnc2c(c1)CCNC2 [Example 119] |  |  | 630 | 730 |  |  | 
16 | O=C(Nc1cn(Cc2cccc(F)c2)cn1)c1cnc2c(c1)CCNC2 [Example 120] |  |  | 70 | 80 |  |  | 
17 | Cc1cccc(Cn2cnc(NC(=O)c3cnc4c(c3)CCNC4)c2)c1 [Example 121] |  |  | 70 | 80 |  |  | 

The next lines start with results.

Row | IC50 (HCT-116 cells [1]; Homo sapiens, HCT-116, 96 h) [nM] | IC50 (HCT-116 cells [3]; Homo sapiens, 96 h) [nM] | IC50 (HCT-116 cells [1]) [nM] | IC50 (HCT-116 cells [3]) [nM] | SMILES | T/C (HCT-116 cells [2]; dosage 10 mg/kg) [%] | T/C (HCT-116 cells [2]; dosage 30 mg/kg) [%] | T/C (HCT-116 cells [2]; dosage 100 mg/kg) [%]
18 | 50 | 40 |  |  | O=C(Nc1cn(Cc2cccc(C(F)(F)F)c2)cn1)c1ccc2c(n1)CCNC2 [Example 10, N-{1-[3-(trifluoromethyl)benzyl]-1H-imidazol-4-yl}-5,6,7,8-tetrahydro-1,6-naphthyridine-2-carboxamide] |  | 55 | 49
19 | 60 | 30 |  |  | O=C(Nc1cn(Cc2cccc(C(F)(F)F)c2)cn1)c1cnc2c(c1)CCNC2 [Example 13, N-{1-[3-(trifluoromethyl)benzyl]-1H-imidazol-4-yl}-5,6,7,8-tetrahydro-1,7-naphthyridine-3-carboxamide] |  | 62 | 59
20 | 590 | 70 |  |  | Cc1ccc(Cn2cnc(NC(=O)c3ccc4c(c3)CCNC4)c2)cc1C(F)(F)F [Example 97, N-{1-[4-methyl-3-(trifluoromethyl)benzyl]-1H-imidazol-4-yl}-1,2,3,4-tetrahydroisoquinoline-6-carboxamide] |  |  | 
21 | 510 | 500 |  |  | COc1cc(Cn2cnc(NC(=O)c3ccc4c(c3)CCNC4)c2)cc(C(F)(F)F)c1 [Example 98] |  |  | 
22 | 60 | 60 |  |  | O=C(Nc1cn(Cc2cc(F)cc(C(F)(F)F)c2)cn1)c1ccc2c(c1)CCNC2 [Example 99, N-{1-[3-fluoro-5-(trifluoromethyl)benzyl]-1H-imidazol-4-yl}-1,2,3,4-tetrahydroisoquinoline-6-carboxamide] |  |  | 
23 | 530 | 620 |  |  | O=C(Nc1cn(Cc2ccc(C(F)(F)F)o2)cn1)c1ccc2c(c1)CCNC2 [Example 104] |  |  | 
24 | 580 | 680 |  |  | O=C1CCc2cc(C(=O)Nc3cn(Cc4cccc(C(F)(F)F)c4)cn3)ccc2C1 [Example 110, 6-Oxo-N-{1-[3-(trifluoromethyl)benzyl]-1H-imidazol-4-yl}-5,6,7,8-tetrahydronaphthalene-2-carboxamide] |  |  | 
25 | 980 | 690 |  |  | O=C(Nc1cn(Cc2cccc(C(F)(F)F)c2)cn1)c1ccc2c(c1)CCC(O)C2 (stereo not drawn) [Example 111, 6-Hydroxy-N-{1-[3-(trifluoromethyl)benzyl]-1H-imidazol-4-yl}-5,6,7,8-tetrahydronaphthalene-2-carboxamide] |  |  | 

Source: patent publication US10294237B2, “Bicyclic heterocyclic amide derivative” (Sumitomo Dainippon Pharma Co., Ltd., priority 2015, dated 2019)
